Source: the NIST ThermoML archive (doi:10.1016/j.jct.2016.09.041)

Experiment: molar heat capacity at constant pressure
Conditions: 101.33 kPa, Crystal 1, Small (less than 1 g) adiabatic calorimetry

N[C@@H](Cc1c[nH]c2ccccc12)C(=O)O [L-tryptophan]
Conditions | molar heat capacity at constant pressure [J/K/mol]
124.29 K | 103.18
125.09 K | 103.85
125.89 K | 104.51
126.7 K | 105.01
127.5 K | 105.51
128.3 K | 106.18
129.1 K | 106.67
129.91 K | 107.26
130 K | 107.26
130.71 K | 107.84
131.51 K | 108.34
132.31 K | 108.75
133.12 K | 109.25
133.92 K | 109.67
134.72 K | 110.5
135.52 K | 111.08
136.33 K | 111.66
137.13 K | 112.16
137.93 K | 112.74
138.74 K | 113.33
139.54 K | 113.83
140 K | 114.16
140.34 K | 114.32
141.14 K | 114.74
141.95 K | 115.49
142.75 K | 116.07
143.55 K | 116.57
144.35 K | 117.23
145.16 K | 117.65
145.96 K | 118.31
146.76 K | 118.73
147.56 K | 119.31
148.37 K | 119.81
149.17 K | 120.64
149.97 K | 121.14
150 K | 121.06
150.77 K | 121.56
151.57 K | 122.22
152.38 K | 122.97
153.18 K | 123.22
153.98 K | 123.64
154.78 K | 124.55
155.58 K | 124.8
156.38 K | 125.55
157.18 K | 126.13
157.98 K | 126.46
158.79 K | 127.46
159.59 K | 127.96
160 K | 128.04
160.39 K | 128.13
161.19 K | 128.96
161.99 K | 129.62
162.79 K | 130.2
163.59 K | 130.79
164.39 K | 131.29
165.19 K | 131.7
166 K | 131.95
166.8 K | 132.7
167.6 K | 133.45
168.39 K | 134.03
169.19 K | 134.61
169.99 K | 135.19
170 K | 135.03
170.79 K | 135.61
171.59 K | 136.19
172.39 K | 136.52
173.19 K | 137.11
173.99 K | 137.6
174.79 K | 138.1
175.59 K | 138.77
176.39 K | 139.18
177.19 K | 140.1
177.99 K | 140.51
178.79 K | 141.01
179.59 K | 141.6
180 K | 141.93
180.38 K | 142.09
181.18 K | 142.68
181.97 K | 143.34
182.76 K | 143.84
183.57 K | 144.59
184.36 K | 144.92
185.16 K | 145.59
185.96 K | 146.17
186.75 K | 146.67
187.55 K | 147.25
188.34 K | 147.67
189.14 K | 148.5
189.93 K | 149.16
190 K | 148.91
190.73 K | 149.58
191.53 K | 149.91
192.32 K | 150.49
193.12 K | 151.07
193.9 K | 151.91
194.7 K | 152.4
195.49 K | 152.82
196.29 K | 153.24
197.08 K | 153.82
197.87 K | 154.4
198.67 K | 155.23
199.46 K | 155.65
200 K | 156.06
200.26 K | 156.31
201.25 K | 156.89
202.45 K | 157.81
203.66 K | 158.64
204.86 K | 159.55
206.06 K | 160.3
207.27 K | 161.3
208.48 K | 162.22
209.68 K | 162.96
210 K | 163.21
210.89 K | 163.88
212.09 K | 164.54
213.3 K | 165.54
214.51 K | 166.21
215.73 K | 166.95
216.93 K | 167.95
218.14 K | 169.28
219.36 K | 170.2
220 K | 170.28
220.57 K | 170.86
221.79 K | 171.61
223 K | 172.77
224.22 K | 173.69
225.43 K | 174.11
226.65 K | 175.1
227.87 K | 176.35
229.09 K | 177.18
230 K | 177.76
230.31 K | 178.01
231.54 K | 179.09
232.76 K | 179.76
233.98 K | 180.59
235.21 K | 181.67
236.43 K | 182.75
237.66 K | 183.67
238.88 K | 184.5
240 K | 185.25
240.11 K | 185.41
241.34 K | 186.24
242.57 K | 187.33
243.8 K | 188.07
245.03 K | 188.74
246.26 K | 190.07
247.5 K | 190.82
248.75 K | 191.98
249.99 K | 192.56
250 K | 192.81
251.23 K | 193.73
252.46 K | 194.81
253.7 K | 195.72
254.94 K | 196.72
256.18 K | 197.63
257.43 K | 198.47
258.67 K | 199.3
259.92 K | 200.3
260 K | 200.38
261.16 K | 201.13
262.41 K | 202.04
263.66 K | 203.04
264.91 K | 204.12
266.17 K | 204.87
267.42 K | 206.03
268.69 K | 207.2
269.95 K | 208.19
270 K | 208.03
271.21 K | 208.86
272.47 K | 210.02
273.73 K | 210.77
274.99 K | 211.6
276.25 K | 212.93
277.51 K | 213.85
278.78 K | 214.51
280 K | 215.76
280.05 K | 215.84
281.32 K | 216.76
282.59 K | 217.42
283.86 K | 218.5
285.13 K | 219.83
286.41 K | 220.17
287.69 K | 221.58
288.96 K | 222.74
290 K | 223.83
290.24 K | 223.49
291.52 K | 224.57
292.8 K | 225.16
294.08 K | 226.4
295.36 K | 227.48
296.65 K | 227.73
297.93 K | 228.9
298.15 K | 228.98
299.23 K | 229.65
300 K | 230.31
300.76 K | 230.56
302.42 K | 231.39
304.07 K | 232.81
305.72 K | 234.22
307.35 K | 235.3
308.99 K | 236.3
310 K | 237.05
310.61 K | 237.38
312.22 K | 239.21
313.83 K | 240.04
315.43 K | 240.54
317.02 K | 241.62
318.6 K | 242.87
320 K | 243.61
320.17 K | 243.78
321.71 K | 244.28
323.27 K | 246.27
324.81 K | 246.94
326.3 K | 247.85
327.82 K | 248.94
329.34 K | 250.02
330 K | 250.52
330.82 K | 251.18
332.31 K | 252.43
333.79 K | 253.51
335.26 K | 254.09
336.72 K | 255.17
338.17 K | 256.67
339.59 K | 256.42
340 K | 258
341.01 K | 258.66
342.42 K | 259.91
343.82 K | 260.91
345.21 K | 262.16
346.6 K | 263.24
347.91 K | 263.9
349.09 K | 265.81
350 K | 265.98
350.43 K | 266.89
351.76 K | 268.06
353.08 K | 269.06
354.39 K | 269.47
355.67 K | 270.14
356.94 K | 271.3
358.2 K | 272.71
359.46 K | 273.55
360 K | 273.71
360.69 K | 274.04
361.93 K | 275.13
363.07 K | 275.87
364.26 K | 276.54
365.45 K | 277.29
366.62 K | 277.95
367.71 K | 277.87
368.55 K | 278.87
369.68 K | 279.87
370 K | 279.62
370.81 K | 278.62
371.9 K | 280.61
372.99 K | 281.53
